Like-named read-outs stand apart in the source and are kept apart here.
Experiments:
[1] = system: Abeta oligomer-induced synapse loss; test: Synapse loss assay (synaptophysin puncta) in primary neurons; format: cell-based, rat; settings: for Block synapse loss: Table 10B; for Abeta oligomer-induced synapse loss: in words
Procedure: In this assay, Abeta oligomers were brought in contact with mature primary neurons in culture and their binding was determined by immunohistochemistry (anti-Abeta antibody) and quantified by image processing. The amount of Abeta in neuronal dendrites is assessed by counting the number of labeled puncta on the neuritis. […] This labeling is associated with synapses, co-localizing with the post-synaptic scaffold protein PSD-95 (Lacor et al., '04). […] The number of synapses can also be quantified in this assay by immunofluorochemistry. Similar procedures for binding assays can be found in the literature. […] Review.
Primary hippocampal neuronal culture was established as in the membrane trafficking assay above. […] Pretreatment with compounds to be tested lasted for 1 hr and addition of Abeta oligomers or no oligomer (vehicle alone) in a final concentration of 70 ul was followed by incubation for an additional 23 hrs.
The plates were then washed 3× with PBS for 5 min each. The plates were blocked at RT for 1 hr in 5% goat serum and 0.5% Triton X-100 in PBS. […] Primary antibodies were incubated overnight at 4° C. The plates were then washed 3× with PBS for 5 min each. […] Secondary antibodies were incubated at RT for 1 hr. The plates were washed once with PBS. DAPI (4′,6-diamidino-2-phenylindole, Invitrogen) was then applied at 0.03 ug/ul and incubated at RT for 5 min, then washed with PBS.
Images were captured and analyzed with the Cellomics VTI automated microscope platform, using the Neuronal Profiling algorithm. For statistical analysis, a Tukey-Kramer pair-wise comparison with unequal variance was used.

[2] = system: Abeta oligomer-induced membrane trafficking deficits; test: Membrane trafficking/exocytosis (MTT) assay in mature primary hippocampal neurons; format: cell-based, rat; settings: for Functional Neuronal Phenotype: Table 10B
Procedure: The present exocytosis assay was adapted for use with mature primary neuronal cultures grown for 3 weeks in vitro.
The methods used to generate the results were as follows in the Membrane Trafficking/Exocytosis (MTT) assay.
Primary hippocampal neurons from E18 Sprague-Dawley rat embryos were plated at optimized concentrations in 384 well plates in NB media (Invitrogen). Neurons were maintained in cultures for 3 weeks, with twice weekly feeding of NB media with N2 supplement (Invitrogen).
[…] MTT reagent (3-(4,5-dimethylthizaol-2yl)-2,5diphenyl tetrazolium bromide) (Roche Molecular Biochemicals) was reconstituted in phosphate buffered saline to 5 mg/mL. 10 μL of MTT labeling reagent is added to each well and incubated at 37° C. for 1 h, then imaged. Exocytosis was assessed by automated microscopy and image processing to quantify the amount of endocytosed and exocytosed formazan.
Each assay plate was formatted so that compounds are tested with and without Abeta oligomer on each plate.

[3] = system: caspase-3 activity in SKOV-3 human ovarian cancer cells; test: Caspase-3 activity assay in tumor cells; format: cell-based
[4] = system: caspase-3 activity in neurons; test: Caspase-3 activity assay in neurons; format: cell-based
Procedure: The activation of endogenous caspase-3 by sigma-2 receptor ligands was measured using the Caspase-3 Colorimetric Activity Assay Kit (Milipore, Billerica, Mass.) according to the manufacture's protocol. Briefly, MDA-MB 435 or MDA-MB23I cells were plated at 0.5×10^6 cells 100 mm dish. 24 hours after plating, sigma-2 ligands were added to the culture dishes to induce caspase 3 activation. The final concentration of the sigma-2 ligand was its EC50. 24 hours after treatment, cells were harvested, lysed in 300 uL of Cell Lysis Buffer, and centrifuged for 5 minutes at 10,000×g. Supernatant was collected and incubated with caspase-3 substrate, DEVD-pNA, for 2 hours at 37° C. […] Compounds IXa,IXb and II behaved like sigma-2 […] in both cancer cells and neurons.

neuronal cultures [5] = system: neuronal cultures
[6] = system: SKOV-3 human ovarian cancer cell line; test: MTS tumor cell viability assay; format: cell-based; settings: for Action: agonist/antagonist call relative to siramesine; for IC50: Tumor cell viability, 48 hrs
Procedure: The cytotoxicity of compounds shown below was determined using the CellTiter96 Aqueous One Solution Assay (Promega, Madison, Wis.). […] The plate was read at 490 nm in a Victor3 plate reader (PerkinElmer Life and Analytical Sciences, Shelton, Conn.). The EC^50 value, defined as the concentration of the sigma ligand required to inhibit cell viability by 50% relative to untreated cells, was determined from the dose response curve for each cell line.

neuronal cultures [7] = test: Nuclear intensity / morphology in neuronal cultures; settings: 24 hours
sigma-2 receptor = test: Autoradiography, displacement of [3H]-RHM-1 in brain sections; format: binding; settings: 1 μM; monkey frontal cortex, monkey hippocampus, human temporal cortex
Procedure: Brain sections in 20 μM thickness from rats, rhesus monkeys and postmortem human brains were cut using with a Microm cryotome and mounted on superfrost plus glass slides (Fisher Scientific, Pittsburgh, Pa.)., and serial sections through the brain regions of cerebral cortex and hippocampus were used in this study.
Slides were dried and made conductive by coating with a copper foil tape on the free side and then placed in the gas chamber [mixture of argon and triethylamine (Sigma-Aldrich, USA)] of a gaseous detector, the Beta Imager 2000Z Digital Beta Imaging System (Biospace, France). […] [^3H]Microscale (American Radiolabeled Chemicals, Inc., St. Louis, Mo.) was counted at the same time as a reference for total radioactivity quantitative analysis, i.e., to convert the cpm/mm2 to nCi/mg tissue. Quantitative analysis was performed with the program Beta-Image Plus (BioSpace, France) for the anatomical regions of interest (ROI), i.e., to obtain the quantitative radioactivity uptake (cpm/nlln2) in the regions of cortex and hippocampus. The binding density was normalized to fmol/mg tissue based on the specific activities of the corresponding radioligands and calibration curve from the standard [^3H]Microscale.

`COc1cc(CCC(C)NCc2ccc(C(F)(F)F)cc2)ccc1O` (single isomer, unassigned; (+)) [(+) enantiomer of Cpd II] was tested, and the Block synapse loss ([1]; listed as II (+) isomer) was 47%, the “Functional Neuronal Phenotype” value [2] was “Antagonist” and the EC50 ([2]; dose response of % vesicles against Abeta oligomer concentration, 0 uM of enantiomer (Abeta oligomer alone), read-out: EC50 against Abeta at Concentration 0 uM) was 1190 nM. The EC50 ([2]; read-out: EC50 against Abeta at Concentration 20 uM, dose response of % vesicles against Abeta oligomer concentration, 20 uM of enantiomer) was 1460 nM.

Compound `COc1cc(CCC(C)NCc2ccc(C(F)(F)F)cc2)ccc1O` (single isomer, unassigned; (-)) [(−) enantiomer of Cpd II] has a Block synapse loss ([1]; listed as II (−) isomer) of 0%, an EC50 ([2]; Rattus norvegicus, Hippocampal neuron, Table 4, read-out: EC50 in screening assay using single concentration of Abeta oligomer) of 10900 nM and an EC50 ([2]; Rattus norvegicus, Hippocampal neuron, dose response of % vesicles against Abeta oligomer concentration, 0 uM of enantiomer (Abeta oligomer alone), read-out: EC50 against Abeta at Concentration 0 uM) of 1050 nM. The EC50 ([2]; Rattus norvegicus, Hippocampal neuron, read-out: EC50 against Abeta at Concentration 20 uM, dose response of % vesicles against Abeta oligomer concentration, 20 uM of enantiomer) was 2820 nM and the “Functional Neuronal Phenotype” value [2] was “Antagonist”.

With `CCCN(CCC)CCc1ccc(OC)c(OCCc2ccccc2)c1` [NE-100, reference compound] the “Abeta oligomer-induced synapse loss” value [1] was “completely eliminated synapse loss”.

For `COc1cc2c(cc1OC)CN(CCCCNC(=O)c1cc(C)ccc1OC)CC2` [RHM-1, N-[4-(3,4-dihydro-6,7-dimethoxyisoquinolin-2(1H)-yl)butyl]-2-methoxy-5-methylbenzamide], the “Block of caspase-3 activation caused by sigma-2 receptor agonist SV-119” value [3] was “do not block caspase-3 activation”, the “Induction of caspase-3 activity” value [3] was “did not induce caspase-3 activity” and the “Induction of caspase-3 activity” value [4] was “did not induce caspase-3 activity”. For the same compound, the “Nuclear morphology / nuclear intensity compared to vehicle” value (neuronal cultures [5]) was “did not decrease nuclear intensity” and the Action [6] was “Antagonist”.

`COc1ccc(C)cc1NC(=O)OC1CC2CCCC(C1)N2CCCCCCN` (stereo not drawn) [SV-119] was tested, and the “Induction of caspase-3 activity” value [3] was “activate caspase-3”, the “Nuclear morphology / nuclear intensity compared to vehicle” value (neuronal cultures [7]) was “caused significant abnormal nuclear morphology” and the “Induction of caspase-3 activity” value [4] was “activate caspase-3”. The IC50 [6] was 21700 ± 2900 nM and the Action [6] was “Full agonist”.

With `Fc1ccc(-n2cc(CCCCN3CCC4(CC3)OCc3ccccc34)c3ccccc32)cc1` [Siramesine] the “Induction of caspase-3 activity” value [3] was “induced caspase-3 activity”, the “Nuclear morphology / nuclear intensity compared to vehicle” value (neuronal cultures [7]) was “caused significant abnormal nuclear morphology” and the “Induction of caspase-3 activity” value [4] was “induced”. The “Displacement of 18.4 nM [3H]-RHM-1” value (sigma-2 receptor) was “partially displace” and the Action [6] was “Full agonist”.

For `COc1ccc(C)cc1NC(=O)OC1CC2CCCC(C1)N2Cc1ccc(N(C)C)cc1` (stereo not drawn) [WC-26], the “Nuclear morphology / nuclear intensity compared to vehicle” value (neuronal cultures [7]) was “caused significant abnormal nuclear morphology”, the IC50 [6] was 65600 ± 6300 nM and the Action [6] was “Partial agonist”.

In the case of `O=C(CCCN1CCC(O)(c2ccc(Cl)cc2)CC1)c1ccc(F)cc1` [haloperidol, reference compound], the “Abeta oligomer-induced synapse loss” value [1] is reported as “completely eliminated synapse loss”.

Compound “synthetic Abeta oligomer: Abeta 1-42 oligomers made according to published methods [reference compound]” has an EC50 ([2]; synthetic Abeta oligomer alone, read-out: EC50 of Abeta oligomer in membrane trafficking assay) of 820 nM.

From patent US20170197977A9, “COMPOSITIONS AND METHODS FOR TREATING NEURODEGENERATIVE DISEASE” (COGNITION THERAPEUTICS, INC., priority 2011, published 2017)
